Laboratory results from patent US8901118B2, “Compounds and methods for kinase modulation, and indications therefor” (Plexxikon Inc., priority 2010, dated 2014).

Target: T1, CYP1A2 (Homo sapiens, UniProt P05177)
T1 sequence (P05177 1-516): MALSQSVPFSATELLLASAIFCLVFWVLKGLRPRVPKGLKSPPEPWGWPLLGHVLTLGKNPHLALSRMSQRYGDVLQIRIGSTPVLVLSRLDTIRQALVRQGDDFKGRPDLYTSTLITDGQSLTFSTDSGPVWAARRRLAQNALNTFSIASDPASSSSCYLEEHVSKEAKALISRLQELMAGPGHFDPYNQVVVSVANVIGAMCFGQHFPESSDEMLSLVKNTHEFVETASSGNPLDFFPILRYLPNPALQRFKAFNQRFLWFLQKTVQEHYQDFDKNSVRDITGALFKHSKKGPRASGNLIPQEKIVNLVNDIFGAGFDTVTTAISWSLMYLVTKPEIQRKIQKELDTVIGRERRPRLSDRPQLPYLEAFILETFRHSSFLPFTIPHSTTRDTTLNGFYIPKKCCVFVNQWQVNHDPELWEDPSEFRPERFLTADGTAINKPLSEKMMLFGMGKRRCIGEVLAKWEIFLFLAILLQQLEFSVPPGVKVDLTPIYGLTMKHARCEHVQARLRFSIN
Test: CYP1A2 inhibition (fluorescent substrate CEC)
Type: in vitro ADME
Settings: read-out: Cyp IC50 1A2
Outline: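 Test compound titrated 1:1 across ten concentrations; metabolite fluorescence measured after 37 °C incubation of 15 min (CYP1A2), 30 min (CYP2C19, CYP2D6) or 45 min (CYP2C9). IC50 from signal versus concentration.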

Row | IC50 [µM] | SMILES
1 | > 10 | Clc1cnc2[nH]cc(Cc3cnc(NC4CCCCC4)nc3)c2c1 [Compound P-3001, [5-(5-chloro-1H-pyrrolo[2,3-b]pyridin-3-ylmethyl)-pyrimidin-2-yl]-cyclohexyl-amine]
2 | > 10 | Clc1cnc2[nH]cc(Cc3cnc(NC4CCCCCC4)nc3)c2c1 [Compound P-3006, [5-(5-Chloro-1H-pyrrolo[2,3-b]pyridin-3-ylmethyl)-pyrimidin-2-yl]-cycloheptyl-amine]
3 | > 10 | CCc1ccc(Nc2ccc(Cc3c[nH]c4ncc(C)cc34)c(F)n2)cn1 [Compound P-3048, (6-Ethyl-pyridin-3-yl)-[6-fluoro-5-(5-methyl-1H-pyrrolo[2,3-b]pyridin-3-ylmethyl)-pyridin-2-yl]-amine]
4 | > 10 | CCc1ccc(Nc2ccc(C(=O)c3c[nH]c4ncc(C)cc34)c(F)n2)cn1 [Compound P-3049, [6-(6-Ethyl-pyridin-3-ylamino)-2-fluoro-pyridin-3-yl]-(5-methyl-1H-pyrrolo[2,3-b]pyridin-3-yl)-methanone]
5 | > 10 | Cc1cnc2[nH]cc(Cc3ccc(Nc4ccc(C5CC5)nc4)nc3F)c2c1 [Compound P-3050, (6-Cyclopropyl-pyridin-3-yl)-[6-fluoro-5-(5-methyl-1H-pyrrolo[2,3-b]pyridin-3-ylmethyl)-pyridin-2-yl]-amine]
6 | > 10 | Cc1cnc2[nH]cc(C(=O)c3ccc(Nc4ccc(C5CC5)nc4)nc3F)c2c1 [Compound P-3051, [6-(6-Cyclopropyl-pyridin-3-ylamino)-2-fluoro-pyridin-3-yl]-(5-methyl-1H-pyrrolo[2,3-b]pyridin-3-yl)-methanone]
7 | > 10 | O=C(c1ccc(Nc2ccc(C3CC3)nc2)nc1F)c1c[nH]c2ncccc12 [Compound P-3052, [6-(6-Cyclopropyl-pyridin-3-ylamino)-2-fluoro-pyridin-3-yl]-(1H-pyrrolo[2,3-b]pyridin-3-yl)-methanone]
8 | > 10 | Fc1nc(Nc2ccc(C3CC3)nc2)ccc1Cc1c[nH]c2ncccc12 [Compound P-3053, (6-Cyclopropyl-pyridin-3-yl)-[6-fluoro-5-(1H-pyrrolo[2,3-b]pyridin-3-ylmethyl)-pyridin-2-yl]-amine]
9 | > 10 | COc1ccc(Nc2ccc(Cc3c[nH]c4ncnc(C)c34)c(F)n2)cn1 [Compound P-4002, [6-Fluoro-5-(4-methyl-7H-pyrrolo[2,3-d]pyrimidin-5-ylmethyl)-pyridin-2-yl]-(6-methoxy-pyridin-3-yl)-amine]
10 | > 10 | Fc1nc(NC2CCC(F)(F)CC2)ccc1Cc1c[nH]c2ncnc(NCC(F)(F)F)c12 [Compound P-4128, 5-[[6-[(4,4-difluorocyclohexyl)amino]-2-fluoro-3-pyridyl]methyl]-N-(2,2,2-trifluoroethyl)-7H-pyrrolo[2,3-d]pyrimidin-4-amine]
11 | > 10 | Fc1nc(NC2CCC(F)(F)CC2)ccc1Cc1c[nH]c2ncnc(NC3CC3)c12 [Compound P-4129, N-cyclopropyl-5-[[6-[(4,4-difluorocyclohexyl)amino]-2-fluoro-3-pyridyl]methyl]-7H-pyrrolo[2,3-d]pyrimidin-4-amine]
12 | > 10 | Fc1nc(Nc2ccc(C3CC3)nc2)ccc1Cc1c[nH]c2ncnc(NCC(F)(F)F)c12 [Compound P-4130, 5-[[6-[(6-cyclopropyl-3-pyridyl)amino]-2-fluoro-3-pyridyl]methyl]-N-(2,2,2-trifluoroethyl)-7H-pyrrolo[2,3-d]pyrimidin-4-amine]

Target: T2, Flt-3 kinase (Homo sapiens, UniProt P36888)
T2 sequence (P36888 27-993): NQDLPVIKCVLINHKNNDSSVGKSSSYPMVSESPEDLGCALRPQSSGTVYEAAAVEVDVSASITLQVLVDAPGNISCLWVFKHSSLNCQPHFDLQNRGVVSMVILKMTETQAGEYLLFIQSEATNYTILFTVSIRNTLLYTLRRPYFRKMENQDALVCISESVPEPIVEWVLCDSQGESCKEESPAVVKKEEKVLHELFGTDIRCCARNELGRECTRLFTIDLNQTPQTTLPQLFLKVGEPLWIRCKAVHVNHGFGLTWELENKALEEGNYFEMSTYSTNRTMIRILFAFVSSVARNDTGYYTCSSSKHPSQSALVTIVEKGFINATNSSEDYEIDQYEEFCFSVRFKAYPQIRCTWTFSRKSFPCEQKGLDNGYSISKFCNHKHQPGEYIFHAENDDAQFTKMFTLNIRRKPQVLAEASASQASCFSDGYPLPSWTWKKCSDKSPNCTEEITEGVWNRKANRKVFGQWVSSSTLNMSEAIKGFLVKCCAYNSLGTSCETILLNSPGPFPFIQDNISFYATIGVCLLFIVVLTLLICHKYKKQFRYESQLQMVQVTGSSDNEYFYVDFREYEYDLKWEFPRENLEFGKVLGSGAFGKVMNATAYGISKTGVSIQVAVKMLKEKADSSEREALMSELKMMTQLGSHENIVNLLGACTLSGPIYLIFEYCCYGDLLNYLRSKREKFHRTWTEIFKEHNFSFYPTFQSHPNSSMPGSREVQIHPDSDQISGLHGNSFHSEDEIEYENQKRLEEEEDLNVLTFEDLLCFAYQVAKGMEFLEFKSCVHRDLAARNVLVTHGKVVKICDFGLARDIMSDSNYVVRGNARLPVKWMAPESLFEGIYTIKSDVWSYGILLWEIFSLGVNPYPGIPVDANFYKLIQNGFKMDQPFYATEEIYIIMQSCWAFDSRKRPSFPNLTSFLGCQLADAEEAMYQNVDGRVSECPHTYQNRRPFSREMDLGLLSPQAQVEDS
Test: Flt-3 kinase biochemical activity assay (AlphaScreen)
Settings: 100 μM ATP; read-out: Biochemical Inhibition IC50 Flt3
Experimental: In one assay the biochemical activity IC50 values are determined with respect to inhibition of Flt-3 kinase activity, where inhibition of phosphorylation of a peptide substrate is measured as a function of compound concentration. Compounds to be tested, dissolved in DMSO (1 μL), are added to a white 384-well plate (Costar #3705). Working stocks of Flt-3 kinase (Invitrogen), biotin-(E4Y)10 substrate (Upstate Biotech, Cat#12-440), and ATP (Sigma, Cat#A-3377) are prepared in 25 mM Hepes pH 7.5, 5 mM MgCl2, 5 mM MnCl2, 1 mM DTT, and 0.01% Tween-20. All components are added to the 384-well plate for a final concentration of 1 ng/well Flt-3, 30 nM biotin-(E4Y)10 and 100 μM ATP in a volume of 20 μL. Each sample is at 5% DMSO. The plate is then incubated for 1 hour at room temperature. Just before use, working stocks of donor and acceptor beads from the AlphaScreen PY20 Detection Kit (PerkinElmer, Cat#676601M) are prepared in 25 mM Hepes pH 7.5, pH 7.4, 100 mM EDTA. 0.3% BSA. To stop the reaction, the plate is uncovered in the dark and 5 μL of Donor Beads solution (Streptavidin beads) is added to each well. The plate is incubated at room temperature for 20 minutes. Five microliters of Acceptor Beads solution (PY20 coated beads) are then added to each well. The final concentration of each bead is 10 μg/mL. The plates are incubated at room temperature for 60 minutes. Fluorescence signal is recorded on the Envision reader. Phosphorylated substrate results in binding of the PY20 antibody and association of the donor and acceptor beads such that signal correlates with kinase activity. The signal vs. compound concentration is used to determine the IC50.

Row | IC50 [µM] | SMILES
13 | < 0.1 | COc1ccccc1Nc1ncc(Cc2c[nH]c3ncc(Cl)cc23)cn1 [Compound P-3016, [5-(5-Chloro-1H-pyrrolo[2,3-b]pyridin-3-ylmethyl)-pyrimidin-2-yl]-(2-methoxy-phenyl)-amine]
14 | < 0.1 | Fc1cccc(Nc2ncc(Cc3c[nH]c4ncc(Cl)cc34)cn2)c1 [Compound P-3017, [5-(5-Chloro-1H-pyrrolo[2,3-b]pyridin-3-ylmethyl)-pyrimidin-2-yl]-(3-fluoro-phenyl)-amine]
15 | < 0.01 | COc1ccc(Nc2ncc(Cc3c[nH]c4ncc(C)cc34)cn2)cn1 [Compound P-3020, (6-Methoxy-pyridin-3-yl)-[5-(5-methyl-1H-pyrrolo[2,3-b]pyridin-3-ylmethyl)-pyrimidin-2-yl]-amine]
16 | < 0.01 | COc1ccc(Nc2ncc(Cc3c[nH]c4ncc(C)cc34)cn2)cc1 [Compound P-3021, (4-Methoxy-phenyl)-[5-(5-methyl-1H-pyrrolo[2,3-b]pyridin-3-ylmethyl)-pyrimidin-2-yl]-amine]
17 | < 0.1 | COc1cc(Nc2ncc(Cc3c[nH]c4ncc(C)cc34)cn2)ccc1F [Compound P-3022, (4-Fluoro-3-methoxy-phenyl)-[5-(5-methyl-1H-pyrrolo[2,3-b]pyridin-3-ylmethyl)-pyrimidin-2-yl]-amine]
18 | < 0.01 | CCCOc1ccc(Nc2ncc(Cc3c[nH]c4ncc(C)cc34)cn2)cc1 [Compound P-3024, [5-(5-Methyl-1H-pyrrolo[2,3-b]pyridin-3-ylmethyl)-pyrimidin-2-yl]-(4-propoxy-phenyl)-amine]
19 | < 0.01 | CCc1ccc(Nc2ncc(Cc3c[nH]c4ncc(C)cc34)cn2)cc1 [Compound P-3025, (4-Ethyl-phenyl)-[5-(5-methyl-1H-pyrrolo[2,3-b]pyridin-3-ylmethyl)-pyrimidin-2-yl]-amine]
20 | < 0.1 | CCOc1ccc(Nc2ncc(Cc3c[nH]c4ncc(C)cc34)cn2)cc1 [Compound P-3026, (4-Ethoxy-phenyl)-[5-(5-methyl-1H-pyrrolo[2,3-b]pyridin-3-ylmethyl)-pyrimidin-2-yl]-amine]
21 | < 0.01 | CCOc1ccc(Nc2ncc(Cc3c[nH]c4ncc(C)cc34)cn2)cn1 [Compound P-3027, (6-Ethoxy-pyridin-3-yl)-[5-(5-methyl-1H-pyrrolo[2,3-b]pyridin-3-ylmethyl)-pyrimidin-2-yl]-amine]
22 | < 0.1 | CCn1ccc(Nc2ncc(Cc3c[nH]c4ncc(C)cc34)cn2)n1 [Compound P-3035, (1-Ethyl-1H-pyrazol-3-yl)-[5-(5-methyl-1H-pyrrolo[2,3-b]pyridin-3-ylmethyl)-pyrimidin-2-yl]-amine]
23 | < 0.1 | CCn1cc(Nc2ncc(Cc3c[nH]c4ncc(C)cc34)cn2)cn1 [Compound P-3036, (1-Ethyl-1H-pyrazol-4-yl)-[5-(5-methyl-1H-pyrrolo[2,3-b]pyridin-3-ylmethyl)-pyrimidin-2-yl]-amine]
